# From patent US7820670B2 (Alcon Research, Ltd., priority 2006, dated 2010)
# Structures can show the parent of a compound that is named as a salt. Where two headings read alike, the source gives them in different places.
# Experiments:
# ROCK 1 = ROCK 1 (Homo sapiens, UniProt Q13464); test: Rho kinase assay (IMAP ROCK-I kit, fluorescence polarization)
# Experimental: (§1) The rho kinase assays were performed using a Biomek 2000 Robotic Workstation (Beckman Instruments, Palo Alto, Calif.) in a 96-well plate format. The assay was performed utilizing the IMAP ROCK-I and ROCK-II kits (Molecular Devices, Sunnyvale, Calif.) as follows. […] The substrate, enzyme, and ATP dilutions were made with the reaction buffer provided by the vendor. Test compounds were diluted in 10:10 DMSO-ethanol (vol/vol). For the actual assay, the various components were added into black, clear bottom, 96-well plates (Costar, Corning, N.Y.) in a final volume of 20μl per well. After the enzyme reaction (60 min at 23° C.), 60 μl of the binding solution was added per well and incubated for an additional 30 minutes in the dark at 23° C. Fluorescence polarization of the reaction mixtures was then measured on the Analyst™ HT instrument (Molecular Devices, Sunnyvale, Calif.).
# ROCK 2 = molecular target: T1, ROCK 2 (Homo sapiens, UniProt O75116); test: Rho kinase assay (IMAP ROCK-II kit, fluorescence polarization); type: biochemical
# T1 construct: purchased Molecular Devices, Sunnyvale, Calif
# T1 sequence (O75116 whole entry, species assumed): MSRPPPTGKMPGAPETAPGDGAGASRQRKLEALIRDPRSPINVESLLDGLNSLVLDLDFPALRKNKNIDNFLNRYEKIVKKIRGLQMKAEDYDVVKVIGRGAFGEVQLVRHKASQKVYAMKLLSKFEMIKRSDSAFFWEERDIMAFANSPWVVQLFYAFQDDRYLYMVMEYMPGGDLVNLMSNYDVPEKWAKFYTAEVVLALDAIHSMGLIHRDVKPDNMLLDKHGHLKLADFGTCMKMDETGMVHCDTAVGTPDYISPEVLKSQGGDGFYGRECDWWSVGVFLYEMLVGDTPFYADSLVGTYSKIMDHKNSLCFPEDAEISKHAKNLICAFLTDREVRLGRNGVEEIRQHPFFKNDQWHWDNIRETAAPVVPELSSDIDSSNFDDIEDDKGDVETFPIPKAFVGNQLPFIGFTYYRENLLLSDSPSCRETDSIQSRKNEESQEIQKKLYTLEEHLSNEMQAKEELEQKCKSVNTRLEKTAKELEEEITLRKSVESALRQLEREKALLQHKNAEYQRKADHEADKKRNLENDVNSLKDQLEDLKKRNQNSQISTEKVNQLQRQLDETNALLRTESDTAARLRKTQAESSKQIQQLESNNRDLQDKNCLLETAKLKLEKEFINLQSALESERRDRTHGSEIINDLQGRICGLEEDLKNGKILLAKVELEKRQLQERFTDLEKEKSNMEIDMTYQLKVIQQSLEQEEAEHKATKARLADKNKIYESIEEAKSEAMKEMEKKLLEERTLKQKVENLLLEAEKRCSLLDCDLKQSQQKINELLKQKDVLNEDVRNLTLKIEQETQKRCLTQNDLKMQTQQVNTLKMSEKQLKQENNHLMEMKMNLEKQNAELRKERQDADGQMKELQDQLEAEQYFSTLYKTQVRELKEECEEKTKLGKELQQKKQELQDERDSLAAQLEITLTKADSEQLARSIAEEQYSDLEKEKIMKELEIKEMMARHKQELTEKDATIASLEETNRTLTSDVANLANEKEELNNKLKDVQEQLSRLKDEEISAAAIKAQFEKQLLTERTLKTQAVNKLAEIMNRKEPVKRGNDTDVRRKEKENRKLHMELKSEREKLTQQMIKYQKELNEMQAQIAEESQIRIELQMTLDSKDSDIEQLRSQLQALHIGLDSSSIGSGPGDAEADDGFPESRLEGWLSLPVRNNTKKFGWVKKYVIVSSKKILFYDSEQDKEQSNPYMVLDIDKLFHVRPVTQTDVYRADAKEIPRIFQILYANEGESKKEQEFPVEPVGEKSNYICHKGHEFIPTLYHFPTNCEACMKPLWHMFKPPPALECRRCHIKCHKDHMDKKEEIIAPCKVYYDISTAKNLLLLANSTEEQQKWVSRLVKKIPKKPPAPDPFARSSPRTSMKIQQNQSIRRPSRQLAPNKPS
# Experimental: as §1
# [1] = system: lasered (hypertensive) eyes of conscious cynomolgus monkeys; test: Acute IOP response in lasered (hypertensive) eyes of conscious cynomolgus monkeys; type: in vivo; settings: 30 ug, one 30 μL aliquot topical to right eye
# Experimental: Intraocular pressure (IOP) can be determined with an Alcon Pneumatonometer after light corneal anesthesia with 0.1% proparacaine. Eyes are washed with saline after each measurement. After a baseline IOP measurement, test compound is instilled in one 30 μL aliquot to the right eyes only of nine cynomolgus monkeys. Vehicle is instilled in the right eyes of six additional animals. Subsequent IOP measurements are taken at 1, 3, and 6 hours.
# [2] = substrate 200 nM, ATP 10 μM, 60 min at 23° C.
# ROCK 1, sequence (Q13464 whole entry, species assumed): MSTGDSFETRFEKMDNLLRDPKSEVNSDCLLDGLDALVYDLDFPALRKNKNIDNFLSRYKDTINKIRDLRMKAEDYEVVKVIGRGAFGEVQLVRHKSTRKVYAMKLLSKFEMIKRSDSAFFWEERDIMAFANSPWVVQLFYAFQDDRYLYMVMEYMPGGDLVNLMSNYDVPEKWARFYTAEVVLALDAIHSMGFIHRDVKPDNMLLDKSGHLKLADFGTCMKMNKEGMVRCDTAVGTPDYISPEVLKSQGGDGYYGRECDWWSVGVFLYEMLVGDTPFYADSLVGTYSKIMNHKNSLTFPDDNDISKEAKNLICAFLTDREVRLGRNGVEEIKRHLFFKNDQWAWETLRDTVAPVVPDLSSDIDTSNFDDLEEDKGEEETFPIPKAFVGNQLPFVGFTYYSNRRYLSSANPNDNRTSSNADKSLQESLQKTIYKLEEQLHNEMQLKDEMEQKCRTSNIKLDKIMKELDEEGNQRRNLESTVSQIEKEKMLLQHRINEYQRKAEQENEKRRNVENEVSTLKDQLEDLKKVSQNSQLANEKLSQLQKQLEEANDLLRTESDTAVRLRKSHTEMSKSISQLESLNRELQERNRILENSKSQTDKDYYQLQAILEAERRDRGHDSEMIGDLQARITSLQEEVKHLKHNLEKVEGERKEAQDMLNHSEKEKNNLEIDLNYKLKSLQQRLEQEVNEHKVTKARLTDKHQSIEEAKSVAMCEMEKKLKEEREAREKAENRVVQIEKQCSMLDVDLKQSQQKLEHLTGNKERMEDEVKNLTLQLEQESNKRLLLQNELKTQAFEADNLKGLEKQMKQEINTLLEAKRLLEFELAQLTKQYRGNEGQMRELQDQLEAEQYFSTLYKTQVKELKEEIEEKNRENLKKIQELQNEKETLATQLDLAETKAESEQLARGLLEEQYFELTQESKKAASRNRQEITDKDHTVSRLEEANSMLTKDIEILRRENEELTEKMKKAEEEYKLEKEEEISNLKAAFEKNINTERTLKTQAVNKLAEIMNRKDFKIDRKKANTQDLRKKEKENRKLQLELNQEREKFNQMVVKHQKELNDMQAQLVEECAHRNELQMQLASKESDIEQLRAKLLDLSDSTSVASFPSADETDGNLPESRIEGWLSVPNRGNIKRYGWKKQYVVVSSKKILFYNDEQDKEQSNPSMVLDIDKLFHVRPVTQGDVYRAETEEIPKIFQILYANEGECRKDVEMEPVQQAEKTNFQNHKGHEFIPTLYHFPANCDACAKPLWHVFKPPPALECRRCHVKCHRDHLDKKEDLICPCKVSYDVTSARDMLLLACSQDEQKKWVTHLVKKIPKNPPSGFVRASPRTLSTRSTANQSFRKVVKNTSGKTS
Structure (SMILES),IC50 (ROCK 1),IC50 (ROCK 2; [2]),further results
"CCCC/C=C/c1cnc2ccc(NCCCN3CCCC3)nn12 [Example 47, (E)-3-(Hex-1-enyl)-N-(3-(pyrrolidin-1-yl)propyl)imidazo[1,2-b]pyridazin-6-amine dihydrochloride]",59 µM,–,IC50 (ROCK 2): 38 µM
"CCCC/C=C/c1cnc2ccc(NCCCN)nn12 [Example 48, (E)-N^1-(3-(Hex-1-enyl)imidazo[1,2-b]pyridazin-6-yl)propane-1,3-diamine]",57 µM,58 µM,–
"CCCC/C=C/c1cnc2ccc(N[C@H]3CC[C@H](O)CC3)nn12 [Example 49, Anti-(E)-4-(3-(Hex-1-enyl)imidazo[1,2-b]pyridazin-6-ylamino)cyclohexanol]",13 µM,29 µM,–
"CCCC/C=C/c1cnc2ccc(N[C@H]3CC[C@@H](O)CC3)nn12 [Example 50, Syn-(E)-4-(3-(Hex-1-enyl)imidazo[1,2-b]pyridazin-6-ylamino)cyclohexanol hydrochloride]",6 µM,17 µM,–
"c1cc2[nH]ncc2cc1-c1cnc2ccc(N3CCNCC3)nn12 [Example 51, 3-(1H-Indazol-5-yl)-6-piperazin-1-yl-imidazo[1,2-b]pyridazine dihydrochloride]",0.12 µM,0.0035 µM,–
"Cc1n[nH]c2ccc(-c3cnc4ccc(N5CCNCC5)nn34)cc12 [Example 52, 3-(3-Methyl-1H-indazol-5-yl)-6-piperazin-1-yl-imidazo[1,2-b]pyridazine trihydrochloride]",0.027 µM,0.014 µM,–
"Cc1n[nH]c2ccc(-c3cnc4ccc(NC5CCCNC5)nn34)cc12 (stereo not drawn) [Example 53, [3-(3-methyl-1H-indazol-5-yl)-imidazo[1,2-b]pyridazine-6-yl]-piperidin-3-yl-amine trihydrochloride]",0.082 µM,0.073 µM,–
"c1cc(-c2cnc3ccc(N4CCCNCC4)nn23)ccn1 [Example 54, 6-(1,4-Diazepan-1-yl)-3-pyridin-4-yl-imidazo [1,2-b]pyridazine hydrochloride]",0.93 µM,0.33 µM,–
"Cc1n[nH]c2ccc(-c3cnc4ccc(N5CCCNCC5)nn34)cc12 [Example 55, 3-(3-Methyl-1H-indazol-5-yl)-6-perhydro-1,4-diazepin-1-yl-imidazo[1,2-b]pyridazine trihydrochloride]",0.0088 µM,0.011 µM,IOP % Change ([1]; 1 hr after dosing): 1.0%; IOP Change mmHg ([1]; 1 hr after dosing): 1.0 mmHg; IOP % Change ([1]; 3 hrs after dosing): −21.6%; IOP Change mmHg ([1]; 3 hrs after dosing): −8.7 mmHg; IOP % Change ([1]; 6 hrs after dosing): −22.0%; IOP Change mmHg ([1]; 6 hrs after dosing): −8.9 mmHg
"c1n[nH]cc1-c1cnc2ccc(N3CCCNCC3)nn12 [Example 56, 6-Perhydro-1,4-diazepin-1-yl-3-(1H-pyrazol-4-yl)-imidazo[1,2-b]pyridazine dihydrochloride]",18 µM,6.7 µM,–
"c1cncc(-c2cnc3ccc(N4CCCNCC4)nn23)c1 [Example 57, 6-Perhydro-1,4-diazepin-1-yl-3-pyridin-3-yl-imidazo[1,2-b]pyridazine trihydrochloride]",63 µM,23 µM,–
"NC(=O)c1ccc(-c2cnc3ccc(N4CCCNCC4)nn23)cc1 [Example 58, 4-(6-Perhydro-1,4-diazepin-1-yl-imidazo[1,2-b]pyridazin-3-yl)benzamide dihydrochloride]",56 µM,–,IC50 (ROCK 2): 16 µM
